Laboratory results reported in patent US20090325314A1, “N-Methyl Scanning Mutagenesis” (UNIVERSITY OF SOUTHERN CALIFORNIA, priority 2008, published 2009).
pKd: −log10 of the molar value. Where no end group is shown, it is not given here. [ ]: non-standard residue; d: D form. NMeK = CN[C@@H](CCCCN)C(=O)O

Tests used:
Gαi1·GDP [1] = target: T1, Gαi1·GDP (Homo sapiens, UniProt P63096); conditions: binding to Gαi1·GDP; literature value; cited from earlier work
Gαi1 = target: T2, Gαi1 (Homo sapiens, UniProt P63096); test: R6A-1 competition/equilibrium binding; conditions: relative to unmodified peptide
T2 construct: made in house; host or cells: cell-free TnT reticulocyte lysate system (Promega), T7 promoter
Protocol: FIG. 2. Relative Peptide Affinities. (A) Radiolabeled Gαi1 was incubated with immobilized, biotinylated R6A and varying concentrations of either R6A (▾), unmodified peptide (▴), or N-Me-K (♦) for 3 hr. at 4° C. The radiolabel bound was normalized to that which bound in the absence of competitor. The plotted values represent the mean of three experimental values and the error bars correspond to the standard deviation. (B) Experimentally determined binding data is shown above. The error is calculated based on the standard error of the mean (SEM) for the log IC50 using GraphPad 5.0.
R6A-1 Competition/Equilibrium Binding: R6A (MSQTKRLDDQLYWWEYL) and Bio-R6A (Bio-MSQTKRLDDQLYWWEYL) were synthesized by previously described methods. This peptide was immobilized to NeutrAvidin beads (Promega) using the manufacturer's instructions. Gαi1 was expressed using the TnT reticulocyte lysate system (T7 promoter, Promega). (250 ng) plasmid DNA and (25 μCi) L-35S-Met (MP Biomedicals) were used in an (25 μL) expression. […] Specific Activity was measured by TCA precipitation.
400 pmol immobilized R6A, and (100,000 cpm) Gαi1 were suspended in (1 mL) HBS-EP buffer. Varying quantities of free peptide (R6A, Unmodified peptide, or N-Me-K) were added. […] After the final wash, the immobilized sample was transferred to scintillation vials and analyzed by scintillation counting. […]

Gαi1·GDP [2] = target: T1, Gαi1·GDP; test: TnT pulldown binding of N-methyl peptide library; set-up: made in house; host or cells: cell-free TnT coupled transcription/translation system (Promega); cDNA clone from UMR cDNA Resource Center; conditions: compared with unmodified peptide
Protocol: Binding affinity of N-methyl peptide library: TnT pulldown experiments were carried out as described in [10] with some modifications. Human cDNA clones encoding G proteins with the pcDNA3.1+ vector (Invitrogen) were obtained from the UMR cDNA Resource Center (www.cdna.org). The DNA clones for Gαi1, and HRas were translated into 35S-Met labeled proteins using a TnT coupled transcription/translation system (Promega). Translation reactions were desalted using G-25 spin columns (GE Healthcare) and the translation yield was calculated by TCA precipitation. Equal amounts of each labeled subunit were added to (5 μL) neutravidin-agarose containing (2 nmol) pre-bound biotin labeled peptide in (1 mL) HBS-EP buffer. Control neutravidin-agarose beads were loaded with (d)-biotin (Anaspec). Binding reactions proceeded for 2 hrs at 4° C. followed by filtration and washing with HBS-EP. The matrix was analyzed by scintillation counting and the percent bound was determined by the matrix counts divided by the total counts as determined by TCA precipitation. Values were normalized to the percent bound of unmodified peptide.

T1 sequence (P63096 whole entry): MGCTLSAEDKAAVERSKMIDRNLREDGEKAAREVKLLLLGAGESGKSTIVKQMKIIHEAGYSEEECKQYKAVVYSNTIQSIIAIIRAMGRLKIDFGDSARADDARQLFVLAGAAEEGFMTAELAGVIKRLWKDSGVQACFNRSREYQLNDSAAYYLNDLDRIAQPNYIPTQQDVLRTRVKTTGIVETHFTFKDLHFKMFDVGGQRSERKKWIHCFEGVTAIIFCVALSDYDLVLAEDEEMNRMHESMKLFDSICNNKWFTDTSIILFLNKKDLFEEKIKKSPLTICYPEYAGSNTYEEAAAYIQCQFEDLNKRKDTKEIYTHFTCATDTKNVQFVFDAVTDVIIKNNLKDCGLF
T2 sequence (P63096 whole entry): as above

ΔΔG (Gαi1; equilibrium competition with R6A) [kcal/mol]	enhanced binding (fold) by equilibrium competition using the R6A peptide (Gαi1; immobilized R6A, radiolabeled Gαi1, 3 hr at 4° C.) [fold]	peptide binding affinity to Gαi1·GDP (qualitative) (Gαi1·GDP [2])	Substance	pKd (Gαi1·GDP [1])
			DKLYWWEFL	6.70
			MSQTKRLDDQLYWWEYL [Compound R6A]	7.22
-0.50	2.5	increased binding affinity	NNNNND[NMeK]LYWWEFL [N-Me-K]	
